We go through 26 molecules from patent US20190196073A1, “COMPOSITION, FILM, NEAR INFRARED CUT FILTER, PATTERN FORMING METHOD, LAMINATE, SOLID IMAGE PICKUP ELEMENT, IMAGE DISPLAY DEVICE, CAMERA MODULE, AND INFRARED SENSOR” (FUJIFILM Corporation, priority 2016, published 2019).

What is called solubility is the dissolved amount per volume that the medium holds. The term Solubility denotes the concentration that dissolves in the medium under given conditions. Read a high Solubility as much dissolved substance.

Converted amounts (≈) assume the structure as drawn.

The nature of data set [1]: Measurement of absorption maximum of near infrared absorbing compound in solution. In kind it is physicochemical. The source says: In addition, in the present invention, a case where the near infrared absorbing compound “has an absorption maximum in a wavelength range of 650 to 1000 nm” represents the near infrared absorbing compound has a maximum absorbance in a wavelength range of 650 to 1000 nm in an absorption spectrum of the near infrared absorbing compound in a solution. A measurement solvent used for measuring an absorption spectrum of the near infrared absorbing compound in the solution is not particularly limited as long as the near infrared absorbing compound is soluble therein. From the viewpoint of solubility, for example, chloroform, dimethylformamide, tetrahydrofuran, or methylene chloride can be used. For example, in the case of a compound which is soluble in chloroform, chloroform is used as the measurement solvent. In the case of a compound which is not soluble in chloroform, methylene chloride is used. In addition, in the case of a compound which is not soluble in chloroform and methylene chloride, dimethylformamide is used. In addition, in the case of a compound which is not soluble in chloroform, methylene chloride, and dimethylformamide, tetrahydrofuran is used.
<Measurement of Absorption Maximum of Near Infrared Absorbing Compound>
A near infrared absorbing compound shown in the following tables was dissolved in a measurement solvent shown in the following tables to prepare a sample solution. Using a spectrophotometer U-4100 (manufactured by Hitachi High-Technologies Corporation), an absorbance of the sample solution in a wavelength range of 300 to 1300 nm was measured to obtain an absorption maximum.

The nature of another data set: physchem. To be noted: 25 °C, organic solvent or mixture, thermodynamic from solid.
The nature of data set [2]: Measurement of solubility of near infrared absorbing compound in propylene glycol methyl ether acetate. Particulars: for solubility at 30 min: propylene glycol methyl ether acetate, 25 °C, organic solvent or mixture, thermodynamic from solid.
Procedure: (§1) Under the atmospheric pressure, about 100 mg (a precisely weighed value is represented by X mg) of the near infrared absorbing compound is added to 1 L of propylene glycol methyl ether acetate at 25° C., and the components are stirred for 30 minutes. Next, the solution is left to stand for 5 minutes and then is filtered, and the filtrate is dried under reduced pressure at 80° C. for 2 hours is precisely weighed (a precisely weighed value is represented by Y mg). The solubility of the near infrared absorbing compound dissolved in propylene glycol methyl ether acetate is calculated from the following expression.

Procedure for physchem: as §1

For the molecule `C/C(C1=C(O)/C(=C(/C)C2=Nc3ccccc3C2CCN)C1=O)=C1/Nc2ccccc2C1CCN` (stereo not drawn) [Example A-28], the “Absorption Maximum” value in data set [1] (measurement solvent Chloroform) is on record as 737 nm. In “physchem”, the solubility at 30 min turned out to be 1.92 µg/mL (≈ 4.22 µM).
`CC(=O)NC1CCC2(CC1)N=c1/c(=C3/C(=O)C(c4ccc5cccc6c5c4NC4(CCC(NC(C)=O)CC4)N6)=C3O)ccc3cccc(c13)N2` (stereo not drawn) [Example A-27]: the “Absorption Maximum” value in data set [1] (measurement solvent Chloroform) turned out to be 810 nm. Also, the solubility at 30 min in the data set “physchem” came to 6.74 µg/mL (≈ 10.1 µM).
Regarding `CC(=O)NC1=CC(=[N+]2CCCC2)C(C)=C/C1=C1/C(=O)C(c2cc(C)c(N3CCCC3)cc2NC(C)=O)=C1[O-]` [Example A-35], in data set [1] (measurement solvent Chloroform), the “Absorption Maximum” value is 700 nm. The solubility at 30 min in the data set “physchem” was 5.11 µg/mL (≈ 9.93 µM).
Consider `CNC(=O)Nc1cc(N2CCCC2)c(C)cc1C1=C([O-])/C(=c2\cc3c4c(c2NC(=O)NC)CCC[N+]=4CCC3)C1=O` [Example A-41], for which the “Absorption Maximum” value in data set [1] (measurement solvent Chloroform) was 710 nm. In the data set “physchem”, the solubility at 30 min came out at 0.94 µg/mL (≈ 1.69 µM).
In the same order, the values of `CC1(C)c2ccccc2N(c2cc(O)c(C3=C([O-])C(=C4C(O)=CC(=[N+]5c6ccccc6C(C)(C)c6ccccc65)C=C4O)C3=O)c(O)c2)c2ccccc21` [Example A-37] are 675 nm and 0.65 µg/mL (≈ 0.912 µM).
For `CCOC(=O)NC1=CC(=[N+](CC)CC)C=C/C1=C1/C(=O)C(c2ccc(N(CC)CC)cc2NC(=O)OCC)=C1[O-]` [Example A-34], in that order: 680 nm and 7.72 µg/mL (≈ 14 µM).
As for `O=C1c2ccc3c4ccc5c6ccc7c8ccc9c%10c(ccc(c%11ccc(c%12ccc(c%13ccc(c2c3%13)C(=O)N1c1ccccc1)c4c5%12)c6c7%11)c%108)C(=O)N(c1ccccc1)C9=O` [Example A-2], the “Absorption Maximum” value in data set [1] (measurement solvent Methylene Chloride) was found to be 765 nm. The solubility at 30 min in data set [2] came to 0.64 µg/mL (≈ 0.809 µM).
As for `CC1N(C)c2cc(NC(=O)CSC(=N)N)c(C3=C([O-])/C(=c4\cc5c(cc4NC(=O)CSC(=N)N)=[N+](C)C(C)C5(C)C)C3=O)cc2C1(C)C` (stereo not drawn) [Example A-23], in data set [1] (measurement solvent Chloroform), the “Absorption Maximum” value is 708 nm. For the same molecule, the solubility at 30 min in “physchem” worked out at 5.62 µg/mL (≈ 8.13 µM).
Regarding `CCOc1ccc(OCC)c2c1C1=NC/2=N\c2c3c(OCC)ccc(OCC)c3c3[n]2[Zn][n]2/c(c4c(OCC)ccc(OCC)c4/c2=N/C2=NC(=N\3)/c3c(OCC)ccc(OCC)c32)=N\1` [Example A-6], the “Absorption Maximum” value in data set [1] (measurement solvent Chloroform) came out at 744 nm. Further, the solubility at 30 min in data set [2] was 15.5 µg/mL.
Regarding `O=C1C(c2ccc(N(c3ccccc3)c3ccccc3)cc2NS(=O)(=O)C(F)(F)F)=C(O)/C1=C1/C=CC(N(c2ccccc2)c2ccccc2)=C/C1=N\S(=O)(=O)C(F)(F)F` [Example A-30], the “Absorption Maximum” value in data set [1] (measurement solvent Chloroform) is 737 nm. Further, the solubility at 30 min in the data set “physchem” came out at 3.58 µg/mL (≈ 4.15 µM).
On to `c1ccc2cc3c(cc2c1)C1=NC3=Nc2c3cc4ccccc4cc3c3[n]2[Cu][n]2c(c4cc5ccccc5cc4c2=NC2=NC(=N3)c3cc4ccccc4cc32)=N1` [Example A-3], for which the “Absorption Maximum” value in data set [1] (measurement solvent Chloroform) is reported as 775 nm. Also, the Solubility in data set [2] (in propylene glycol methyl ether acetate at 25° C., about 100 mg added to 1 L) stood at 0.33 µg/mL.
On to `O=C1C(=C2C(O)=CC(=[N+]3c4ccccc4-c4ccccc43)C=C2O)C([O-])=C1c1c(O)cc(-n2c3ccccc3c3ccccc32)cc1O` [Example A-38], for which, in data set [1] (measurement solvent Chloroform), the “Absorption Maximum” value is given as 750 nm. Further, the solubility at 30 min in the data set “physchem” was 0.88 µg/mL (≈ 1.4 µM).
Consider `NC(=O)c1cccc(N2C(=O)NC(=O)/C(=C/C=C(/C=C/c3c([O-])[nH]c(=O)n(-c4cccc(C(N)=O)c4)c3=O)c3ccccc3)C2=O)c1.[K+]` [Example A-4], for which, in data set [1] (measurement solvent Dimethylformamide), the “Absorption Maximum” value is 740 nm. The solubility at 30 min in data set [2] was 5.82 µg/mL.
In the case of `CCN(CC)c1cc2[nH]c(=O)c3ccc(cc3)c(=O)[nH]c3cc(=[N+](CC)CC)c(C)cc3c3c([O-])c(c3=O)c2cc1C` [Example A-36], in data set [1] (measurement solvent Chloroform), the “Absorption Maximum” value is on record as 715 nm. Also, in “physchem”, the solubility at 30 min came to 4.29 µg/mL (≈ 7.6 µM).
As for `CC1=CC(=[N+](c2ccccc2)c2ccccc2)S/C1=C1/C(=O)C(c2sc(N(c3ccccc3)c3ccccc3)cc2C)=C1[O-]` [Example A-40], the “Absorption Maximum” value in data set [1] (measurement solvent Chloroform) turned out to be 706 nm. For the same molecule, the solubility at 30 min in “physchem” was 11.2 µg/mL (≈ 18.4 µM).
For the molecule `O=C1C(c2ccc(N3CCCCC3)cc2NC(=O)C(F)(F)F)=C([O-])/C1=C1\C=CC(=[N+]2CCCCC2)C=C1NC(=O)C(F)(F)F` [Example A-39], the “Absorption Maximum” value in data set [1] (measurement solvent Chloroform) is given as 698 nm. Also, the solubility at 30 min in “physchem” turned out to be 2.68 µg/mL (≈ 4.3 µM).
As for “4,5-octakis(phenylthio)-3,6-{tetrakis(2,6-dimethylphenoxy)-tetrakis(n-hexyamino)}copper phthalocyanine [AR-1, reference compound]”, the “Absorption Maximum” value in data set [1] (measurement solvent Chloroform) is 780 nm.
On to `CCCCCCCC(CCCCCCC)N1C(=O)c2ccc3c4ccc5c6ccc7c8ccc9c%10c(ccc(c%11ccc(c%12ccc(c%13ccc(c2c3%13)C1=O)c4c5%12)c6c7%11)c%108)C(=O)N(C(CCCCCCC)CCCCCCC)C9=O` [AR-4, reference compound], for which the “Absorption Maximum” value in data set [1] (measurement solvent Chloroform) is 765 nm. The solubility at 30 min in data set [2] turned out to be 32.1 µg/mL (≈ 30.3 µM).
With `CC1C(/C=C2/C(=O)C(/C=C3/C(C)c4cc(C(N)=O)ccc4N3C)=C2[O-])=[N+](C)c2ccc(C(N)=O)cc21` (stereo not drawn) [Example A-26], the “Absorption Maximum” value in data set [1] (measurement solvent Chloroform) turned out to be 665 nm. Also, in “physchem”, the solubility at 30 min was 11.2 µg/mL (≈ 23.2 µM).
As to `O=C1C2=C(c3cnc4ccccc4n3)N(B(c3ccccc3)c3ccccc3)C(=O)C2=C(c2cnc3ccccc3n2)N1B(c1ccccc1)c1ccccc1` [Example A-21], the “Absorption Maximum” value in data set [1] (measurement solvent Chloroform) worked out at 710 nm. Also, the solubility at 30 min in “physchem” was found to be 5.47 µg/mL (≈ 7.59 µM).
In the same order, the values of `CCN1/C(=C/C2=C([O-])C(=C/c3sc4c5ccccc5ccc4[n+]3CC)/C2=O)Sc2c1ccc1ccccc21` [Example A-32] are 705 nm and 0.42 µg/mL (≈ 0.788 µM).
In the same order, the values of `O=C1C(c2ccc3cccc4c3c2NB(c2ccc(O)cc2)N4)=C(O)/C1=c1/ccc2cccc3c2c1=NB(c1ccc(O)cc1)N3` [Example A-31] are 823 nm and 7.69 µg/mL (≈ 12.9 µM).
For `NC(=O)C1N=c2/c(=C3/C(=O)C(c4ccc5cccc6c5c4NC(C(N)=O)N6)=C3O)ccc3cccc(c23)N1` (stereo not drawn) [Example A-29], the “Absorption Maximum” value in data set [1] (measurement solvent Chloroform) amounted to 810 nm. The solubility at 30 min in “physchem” was found to be 0.57 µg/mL (≈ 1.13 µM).
In the same order, the values of `CCN1/C(=C/C2=C([O-])C(=C\c3sc4ccccc4[n+]3CC)/C(=O)C2=O)Sc2ccccc21` [Example A-43] are 848 nm and 2.22 µg/mL (≈ 4.82 µM).
On to `CC1N(C)c2cc(NC(=O)c3ccc4c(c3)C(=O)N(C)C4=O)c(C3=C([O-])/C(=c4\cc5c(cc4NC(=O)c4ccc6c(c4)C(=O)N(C)C6=O)=[N+](C)C(C)C5(C)C)C3=O)cc2C1(C)C` (stereo not drawn) [Example A-24], for which the “Absorption Maximum” value in data set [1] (measurement solvent Chloroform) came out at 711 nm. In the data set “physchem”, the solubility at 30 min was found to be 7.88 µg/mL (≈ 9.46 µM).
Consider `CCNC(=O)NC1=CC(=[N+](CC)CC)C=C/C1=C1/C(=O)C(c2ccc(N(CC)CC)cc2NC(=O)NCC)=C1[O-]` [Example A-25], for which the “Absorption Maximum” value in data set [1] (measurement solvent Chloroform) came to 680 nm. In addition, in “physchem”, the solubility at 30 min was determined as 2.51 µg/mL (≈ 4.57 µM).
